In data set [1] the test system is RAW264.7. Put plainly: Inhibition of LPS induced NO production in mouse RAW264.7 cells at 1.1 uM incubated for 1 hrs followed by LPS stimulation and measured after 24 hrs by Griess reagent based assay. Conditions: time 25.0 hrs. It counts as functional, cell-based.
Data set [2] concerns HGC-27. Briefly: Induction of mitochondrial membrane loss in human HGC-27 at 1.1 to 10 uM and measured after 36 hrs by TMRE dye based flow cytometry. The following applies: dose 1.1-10 µM, DDE = dose-dependent effect. Type of data set: functional, cell-based. Background: A flow cytometer gives signals particle by particle.
The test system of data set [3] is HGC-27. Put plainly: Effect on cell morphology in human HGC-27 cells assessed as appearance of round cells at 10 uM incubated for 48 hrs by giemsa staining based microscopic analysis. Type of data set: functional.
A short description of data set [4]: Metabolic stability in rat whole blood assessed as parent compound remaining at 23.76 to 536 ug/mL and measured upto 4 hrs by HPLC analysis. It counts as ADME, tissue-based. The following applies: at 23.76 to 536 µg/mL, dose 23.76-536 µg/ml, read-out: Stability.
A short description of data set [5]: Toxicity in BALB/c mouse xenografted with mouse CT26.WT assessed as pathological changes in kidney at 100 mg/kg, ip twice daily and measured after 14 days by hematoxylin and eosin staining based microscopic analysis. Type of data set: organism-based. Conditions: in vivo, 336 h, time 14 day.
For data set [6], the system named is RKO. Put plainly: Anti-migration activity against human RKO cells assessed as decrease in cell migration rate at 0.37 uM for 48 hrs by crystalline violet staining based assay. It counts as functional.
The test system of data set [7] is RAW264.7. Briefly: Antiinflammatory activity against LPS-stimulated mouse RAW264.7 cells assessed decrease in IL-1beta release at 6.6 uM incubated for 1 hrs followed by LPS stimulation and measured after 24 hrs by ELISA relative to control. It counts as functional, cell-based. The following applies: time 25.0 hrs. For orientation: ELISA stands for enzyme-linked immunosorbent assay.

Data set [8] is described as follows: Cmax in Sprague-Dawley rat at 100 mg/kg, ip and measured upto 8 hrs by LC-MS/MS analysis. Type of data set: ADME, organism-based. More on the design: time < 8 hrs, dose 100 mg/kg, route ip. Conditions: in vivo.
Data set [9] has as its target Nuclear factor NF-kappa-B complex (Homo sapiens) (UniProt Q00653+P19838+Q04206). Briefly: Inhibition of NF-kappaB activation in human HGC-27 cells assessed as downregulation of NF-kappaB phosphorylation at 10 uM for 48 hrs by DAPI staining based immunofluorescence assay. Type of data set: cell-based.
Data set [10] relates to HGC-27. Put plainly: Antiproliferative activity against human HGC-27 cells assessed as cell viability at <= 0.41 uM for 48 hrs by MTT assay. It counts as functional. Conditions: up to 0.41 µM.
Data set [11] deals with RKO. Put plainly: Effect on cell morphology in human RKO cells assessed as appearance of round cells at 10 uM incubated for 48 hrs by giemsa staining based microscopic analysis. It counts as functional.
The subject of data set [12] is RKO. Briefly: Induction of apoptosis in human RKO cells assessed as increase in caspase-3 activity at 1.1 uM incubated for 36 hrs by flow cytometry (Rvb= 1.08%). It counts as functional.
The subject of data set [13] is RKO. Briefly: Induction of apoptosis in human RKO cells assessed as increase in caspase-3 activity at 10 uM incubated for 36 hrs by flow cytometry (Rvb= 1.08%). Type of data set: functional.
In data set [14] the test system is RKO. Briefly: Effect on cell morphology in human RKO cells assessed as condensed morphology at 10 uM incubated for 48 hrs by giemsa staining based microscopic analysis. It counts as functional.
Data set [15] relates to RKO. Put plainly: Antiproliferative activity against human RKO cells assessed as reduction in cell proliferation incubated for 48 hrs by MTT assay. It counts as functional, cell-based.
For data set [16], the system named is HGC-27. Briefly: Induction of apoptosis in human HGC-27 cells assessed as increase in caspase-3 activity at 3.3 uM incubated for 36 hrs by flow cytometry (Rvb= 9.39%). Type of data set: functional.
Data set [17] has as its system HGC-27. Briefly: Induction of cell cycle arrest in human HGC-27 cells assessed as accumulation at G2/M phase at 3.3 to 10 uM for 24 hrs by propidium iodide staining based flow cytometry. It counts as functional. The following applies: dose 3.3-10 µM.
Data set [18] concerns RKO. Put plainly: Induction of apoptosis in human RKO cells assessed as increase in caspase-3 activity at 1.1 to 10 uM incubated for 36 hrs by flow cytometry. It counts as functional, cell-based. The following applies: dose 1.1-10 µM, DDE = dose-dependent effect.

Consider one compound from ChEMBL document CHEMBL5137070, “N-2-(Phenylamino) Benzamide Derivatives as Dual Inhibitors of COX-2 and Topo I Deter Gastrointestinal Cancers via Targeting Inflammation and Tumor Progression” (J Med Chem, 2022).

pIC50: −log10 of the molar value. Active and inactive are the calls of the source. The rule behind the calls is not given here.

Chain of Nuclear factor NF-kappa-B complex (Homo sapiens) (P19838 whole entry, looked up): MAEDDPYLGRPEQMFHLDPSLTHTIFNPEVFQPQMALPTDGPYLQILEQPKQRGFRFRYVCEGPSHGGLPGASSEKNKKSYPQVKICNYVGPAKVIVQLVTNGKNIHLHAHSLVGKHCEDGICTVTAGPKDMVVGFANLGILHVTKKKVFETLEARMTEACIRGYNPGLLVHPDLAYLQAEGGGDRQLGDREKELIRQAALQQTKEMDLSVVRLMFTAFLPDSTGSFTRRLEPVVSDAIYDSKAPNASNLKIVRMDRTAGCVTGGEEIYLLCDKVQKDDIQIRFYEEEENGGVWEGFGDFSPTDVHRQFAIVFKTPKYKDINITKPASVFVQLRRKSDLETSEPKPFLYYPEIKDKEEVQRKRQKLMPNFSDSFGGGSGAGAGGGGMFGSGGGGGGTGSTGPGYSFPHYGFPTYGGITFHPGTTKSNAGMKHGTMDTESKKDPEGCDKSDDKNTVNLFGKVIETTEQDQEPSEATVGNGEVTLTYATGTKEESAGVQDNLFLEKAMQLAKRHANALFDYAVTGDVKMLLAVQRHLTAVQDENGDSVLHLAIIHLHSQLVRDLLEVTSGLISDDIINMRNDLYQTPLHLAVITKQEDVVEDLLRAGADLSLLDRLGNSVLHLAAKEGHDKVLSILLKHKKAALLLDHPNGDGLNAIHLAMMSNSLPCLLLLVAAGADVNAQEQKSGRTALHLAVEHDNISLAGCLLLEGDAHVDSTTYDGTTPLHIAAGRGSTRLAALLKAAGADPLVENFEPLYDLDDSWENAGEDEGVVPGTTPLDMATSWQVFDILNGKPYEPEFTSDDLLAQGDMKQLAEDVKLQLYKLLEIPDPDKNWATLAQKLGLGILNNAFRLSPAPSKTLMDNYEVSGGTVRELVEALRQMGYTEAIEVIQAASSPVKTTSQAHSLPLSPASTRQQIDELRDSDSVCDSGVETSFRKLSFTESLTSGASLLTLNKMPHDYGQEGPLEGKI
Chain of Nuclear factor NF-kappa-B complex (Homo sapiens) (Q00653 whole entry, looked up): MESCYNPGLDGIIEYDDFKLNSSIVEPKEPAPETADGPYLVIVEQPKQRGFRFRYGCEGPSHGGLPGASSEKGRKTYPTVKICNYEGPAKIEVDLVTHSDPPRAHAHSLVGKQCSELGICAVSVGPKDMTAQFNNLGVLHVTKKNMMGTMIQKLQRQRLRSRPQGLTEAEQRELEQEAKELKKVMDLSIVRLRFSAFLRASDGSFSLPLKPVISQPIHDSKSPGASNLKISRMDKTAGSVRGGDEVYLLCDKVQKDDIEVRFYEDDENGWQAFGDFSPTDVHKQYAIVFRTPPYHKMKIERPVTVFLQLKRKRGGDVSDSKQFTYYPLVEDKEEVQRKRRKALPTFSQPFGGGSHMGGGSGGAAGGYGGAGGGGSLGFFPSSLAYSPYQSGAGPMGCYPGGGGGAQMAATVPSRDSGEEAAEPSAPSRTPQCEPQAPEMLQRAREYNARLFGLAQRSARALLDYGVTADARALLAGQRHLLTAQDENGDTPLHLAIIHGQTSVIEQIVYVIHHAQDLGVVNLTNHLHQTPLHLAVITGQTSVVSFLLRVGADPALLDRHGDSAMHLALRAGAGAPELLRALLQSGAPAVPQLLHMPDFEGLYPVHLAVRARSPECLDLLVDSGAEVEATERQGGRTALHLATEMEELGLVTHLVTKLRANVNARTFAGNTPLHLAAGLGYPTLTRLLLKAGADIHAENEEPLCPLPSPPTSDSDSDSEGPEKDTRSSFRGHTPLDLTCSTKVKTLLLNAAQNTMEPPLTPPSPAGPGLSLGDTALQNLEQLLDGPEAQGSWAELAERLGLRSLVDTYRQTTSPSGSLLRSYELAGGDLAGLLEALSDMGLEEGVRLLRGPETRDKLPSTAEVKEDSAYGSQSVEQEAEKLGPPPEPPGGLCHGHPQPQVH
Chain of Nuclear factor NF-kappa-B complex (Homo sapiens) (Q04206 whole entry, looked up): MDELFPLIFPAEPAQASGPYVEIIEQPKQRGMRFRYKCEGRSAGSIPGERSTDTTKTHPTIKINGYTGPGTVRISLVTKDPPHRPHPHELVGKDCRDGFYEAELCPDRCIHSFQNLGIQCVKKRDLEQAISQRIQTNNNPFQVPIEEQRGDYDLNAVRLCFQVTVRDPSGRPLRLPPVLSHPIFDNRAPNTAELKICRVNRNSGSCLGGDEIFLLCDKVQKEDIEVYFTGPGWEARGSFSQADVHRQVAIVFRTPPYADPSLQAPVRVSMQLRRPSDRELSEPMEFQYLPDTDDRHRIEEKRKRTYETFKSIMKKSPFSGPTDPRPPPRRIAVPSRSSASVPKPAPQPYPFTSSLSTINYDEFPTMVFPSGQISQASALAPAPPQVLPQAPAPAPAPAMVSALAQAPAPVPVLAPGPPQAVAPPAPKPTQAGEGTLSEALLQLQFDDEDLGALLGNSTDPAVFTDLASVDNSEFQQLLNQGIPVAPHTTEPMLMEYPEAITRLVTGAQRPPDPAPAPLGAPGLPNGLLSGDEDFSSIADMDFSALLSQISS

By Cmax is commonly meant the peak of the concentration-time curve. Usually pIC50 stands for −log10 of the IC50, conventionally taken in molar units. For `Cc1c(Cl)cccc1Nc1ccc(F)cc1C(=O)NCc1ccc(O)c(O)c1`, the inhibition entry (in the data set on RAW264.7 [1]; in data set [9]) was “Active” throughout. For the same compound, the Activity entry was “Dde” with HGC-27 [2]; “Non-Toxic” in [5]; over 80% in the data set on HGC-27 [10]; 33.77% with RKO [12]; 55.94% in the data set with RKO [13]; 68.8% in the data set on HGC-27 [16]. For the same compound, in the data set on RKO [18], the Activity result was “Dde”. Also, the result in the data set with HGC-27 [3], in the data set on RKO [6], in the data set on RAW264.7 [7], with RKO [11], with RKO [14] and in the data set on HGC-27 [17] was Active. Also, the remaining at 4 h in data set [4] was over 90%. In addition, the highest level in [8] (Cmax) was 20200 ng/mL. Moreover, the pIC50 in the data set on RKO [15] was 5.51.
